The results in this text go back to patent US20210069295A1, “GALECTINS CONTROL MTOR IN RESPONSE TO ENDOMEMBRANE DAMAGE AND PROVIDE A MECHANISM AND TARGET FOR THE TREATMENT OF AUTOPHAGY-RELATED DISEASES” (STC. UNM, priority 2017, published 2021).

Peptide text beside a SMILES is read from it.

The experiment relates to Gal8 and Gal9. Kind of experiment: Galectin puncta formation by high-content microscopy in HeLa cells. It is filed as cell-based. The note with it: HeLa cells overexpressing GFP-Gal8 or GFP-Gal9, 100 μM, 1 h full medium. The method, then: (A) Analysis of the puncta formation of galectins in response to GPN. HeLa cells overexpressing YFP-fused with the indicated galectins were treated with 100 μM GPN or without (Ctrl) in full medium for 1 h and galectin puncta were quantified by HC. […] White masks, algorithm defined cell boundaries (primary objects); green masks, computer-identified galectins puncta (target objects). Data, means±SEM, n≥3 independent experiments (500 primary objects counted per well; ≥5 wells/sample per each experiment); *p<0.05, **p<0.01, † p≥0.05, ANOVA. (B) Immunoprecipitation analysis of the interactions between galectins and mTOR or RagA GTPase. HEK293T cells overexpressing FLAG-tagged galectins were subjected to anti-FLAG immunoprecipitation followed by immunoblotting for endogenous mTOR or RagA. (C) Immunoprecipitation analysis of interactions between Gal8 and mTOR protein complexes in response to GPN treatment. […] Biotinylated proteins from HEK293T cell expressing APEX2-vector or APEX2-Gal8, after GPN and biotin phenol (BP) treatment were affinity-enriched by binding to streptavidin-beads, and samples were analyzed by immunoblotting analysis for endogenous RagA, p14, mTOR or Raptor. […]
(A) HC analysis of the puncta of galectins in response to chloroquine, Bafilomycin A1 and GPN. HeLa cells overexpressing GFP-Gal8 or GFP-Gal9 were treated with 100 μM chloroquine (CQ), […] (BAF) or 100 μM GPN in full medium for 1 h, and the puncta of GFP-Gal8 or GFP-Gal9 were quantified by HC. […] Data, means±SEM, n≥3 independent experiments (500 primary objects counted per well; ≥5 wells/sample per each experiment), † p≥0.05, **p<0.01, ANOVA. […] HeLa cells expressing GFP-Gal8 were treated with 100 μM GPN in full medium for 1 h, and the overlap between GFP-Gal8 and LAMP2 were quantified by HC. […] Data, means±SEM, n≥3 independent experiments (500 primary objects counted per well; ≥5 wells/sample per each experiment), **p<0.01, ANOVA. […]

For the compound `NCC(=O)N[C@@H](Cc1ccccc1)C(=O)Nc1ccc2ccccc2c1` [GPN, glycyl-L-phenylalanine 2-naphththylamide] (HELM PEPTIDE1{G.F.[c1ccc2cc(N[*:1])ccc2c1]}$$$$V2.0), the “Gal8 and Gal9 puncta formation” value is “formed puncta”.
